Data taken from PubChem BioAssay AID1996.
≈ marks a conversion by molar mass, not a printed value.

Details: buffer; pH 7.4; 200.0 µM

Row | SMILES | solubility kinetic [µg/mL]
1 | O=C(COc1ccccc1Cl)NC1CC1 | > 33.9
2 | CCC(NC(=S)NCc1ccc(F)cc1)c1ccc(C(C)C)cc1 (stereo unspecified) | < 0.4
3 | O=C(c1ccco1)N1CCN(c2ccc([N+](=O)[O-])cc2F)CC1 | 7 (≈ 21.9 µM)
4 | COc1ccccc1CNC(=O)CC1Sc2ccccc2NC1=O (stereo unspecified) | 1.7 (≈ 4.96 µM)
5 | O=C(NC(=S)N1CCN(C2CCCCC2)CC1)c1ccccc1 | > 49.7
6 | O=C(NCC(=O)N1CCOCC1)c1ccc(Cl)cc1 | > 42.4
7 | CC(=O)CC(CC(=O)NC1CCCCC1)c1ccccc1 (stereo unspecified) | > 43.1
8 | O=C(COc1cccnc1[N+](=O)[O-])c1c[nH]c2ccccc12 | 4.3 (≈ 14.5 µM)
9 | Cc1ccc(CNC(=O)CCSCc2ccccc2F)cc1 | 11.8 (≈ 37.2 µM)
10 | Cc1cc(C)c(C(=O)O)c(Cl)n1 | > 27.8
11 | Cc1cc(C)c2c(=O)cc(C(=O)NCc3ccccc3)oc2c1 | < 0.7
12 | CN(C(=O)CSc1nc2ccccc2c(=O)n1-c1ccccc1Cl)C1CCS(=O)(=O)C1 (stereo unspecified) | 71.1 (≈ 149 µM)
13 | CC(C)(C)N(Cc1cc2ccccc2[nH]c1=O)C(=O)c1ccco1 | 2.9 (≈ 8.94 µM)
14 | CCOc1ccc(C=NCC(O)c2ccccc2)cc1 (stereo unspecified) | 37 (≈ 137 µM)
15 | O=C(NCc1ccc(F)cc1)c1cnc(Cl)c(Cl)c1 | 6.9 (≈ 23.1 µM)
16 | Cc1c(-c2nc(-c3cccnc3)no2)cccc1[N+](=O)[O-] | 2 (≈ 7.09 µM)
17 | CN1CCCN(C(=O)CNC(=O)Cc2ccccc2)CC1 | > 43.4
18 | CCOC(=O)c1ccc(N2C(=O)C3CCCN3C2=S)cc1 (stereo unspecified) | 41 (≈ 135 µM)
19 | Cc1cccc(OC(C)C(=O)N2CCCN(C)CC2)c1C (stereo unspecified) | > 43.6
20 | CC(C)(CNC(=O)c1cccc(F)c1)CNC(=O)c1cccc(F)c1 | 13.2 (≈ 38.1 µM)
21 | N#Cc1cccc(Cn2cc(C(F)(F)F)ccc2=O)c1 | 41.7 (≈ 150 µM)
22 | Cc1ccc(CN(C)CC(=O)NC(C)c2ccccc2)cc1 (stereo unspecified) | > 44.5

Row | SMILES | solubility kinetic [µg/mL]
23 | Cc1cn(CCC(=O)Nc2ccccc2N2CCOCC2)c2ccccc12 | 27.5 (≈ 75.7 µM)
24 | CCOc1cccc2cc(C(=O)NCc3ccc(F)cc3)c(=N)oc12 | 0.7 (≈ 2.06 µM)
25 | CCCCc1ccc(NC(=O)C(C)CC)cc1 (stereo unspecified) | 6.7 (≈ 28.7 µM)
26 | COc1ccc(C(=O)NN2CCOCC2)cc1 | > 35.4
27 | CCOc1ccc(C2CC(=O)NC2=O)cc1 (stereo unspecified) | > 32.9
28 | CC(C)C1Cc2[nH]c(=O)c(C#N)cc2CO1 (stereo unspecified) | > 32.7
29 | Cc1ccc(S(=O)(=O)Nc2ccc(Cl)cn2)cc1C | 3.4 (≈ 11.5 µM)
30 | O=C1C(Cc2ccc3[nH]ccc3c2)NC(=S)N1c1ccccc1 (stereo unspecified) | > 48.2
31 | CC(C)C(NCC(=O)Nc1ccccc1C(=O)NC1CC1)c1ccccc1 (stereo unspecified) | > 54.8
32 | O=C(CSC1=NCCN1)Nc1ccccc1[N+](=O)[O-] | > 42
33 | Cc1ccc(Cl)cc1NC(=O)COC(=O)CCN1C(=O)C2CC=CCC2C1=O (stereo unspecified) | > 60.7
34 | O=C(Cc1ccc(Cl)c(Cl)c1)Nc1cccc2ncccc12 | 2.1 (≈ 6.34 µM)
35 | O=C(O)CC1(CC(=O)NCc2cccc(Cl)c2)CCCCC1 | > 48.6
36 | Cc1ccc(C(=O)C2CCN(S(=O)(=O)c3c(C)noc3C)CC2)cc1 | 13.6 (≈ 37.5 µM)
37 | CCOP(=O)(OCC)C(NC(=O)c1cccc(C)c1)C(Cl)(Cl)Cl (stereo unspecified) | 56.3 (≈ 140 µM)
38 | COc1ccccc1C1NC(=O)CCC1[N+](=O)[O-] (stereo unspecified) | > 37.5
39 | O=C1C(Cl)=C(NCc2cccnc2)C(=O)c2ccccc21 | 6.9 (≈ 23.1 µM)
40 | COCCn1c(C)cc(C(=O)COC(=O)CNC(=O)c2ccco2)c1C | 45.2 (≈ 125 µM)
41 | O=C(O)c1ccc(/C=N/n2cc(-c3ccccc3)[nH]c2=S)cc1 | > 48.5
42 | COCCSc1ccccc1C(=O)Nc1ccccc1C#N | > 46.9
43 | Cc1ccc(C(=O)C(C)[n+]2cccc(C(N)=O)c2)cc1.[Br-] (stereo unspecified) | > 52.4
44 | COc1ccc(C2c3c(noc3C)CC(C)(O)C2C(C)=O)cc1 (stereo unspecified) | > 47.3

Row | SMILES | solubility kinetic [µg/mL]
45 | Cc1ccccc1OC(C)C(=O)NCCCN1CCOCC1 (stereo unspecified) | 41.5 (≈ 135 µM)
46 | O=S(=O)(c1ccsc1)N1CC=C(c2ccccc2)CC1 | 3.8 (≈ 12.4 µM)
47 | Cn1ccnc1C(O)(c1ccccc1)c1nccn1C | > 40.2
48 | COC(=O)CSc1nc(NCc2ccccc2)nc(N(C)C)n1 | 0.3 (≈ 0.9 µM)
49 | COC(=O)c1ccccc1NC(=O)c1cc[n+](C)cc1 | 26.8
50 | O=C1CCCN1CC(O)CS(=O)(=O)Cc1ccccc1Cl (stereo unspecified) | > 49.8
51 | CC1(C)Cc2c(C#N)c(SCC(=O)O)nc(N3CCOCC3)c2CO1 | 52.7 (≈ 145 µM)
52 | O=C(Nc1ccccc1)c1c(O)c2c(n(Cc3ccco3)c1=O)CCCC2 | < 0.4
53 | O=C(Nc1nc2ccc([N+](=O)[O-])cc2s1)c1ccncc1 | 1.9 (≈ 6.33 µM)
54 | CCN(CC)C(C(=O)NC1CCCCC1)c1ccc(C)cc1 (stereo unspecified) | > 45.4
55 | O=C(OCC(=O)N1CCN(C(=O)c2ccco2)CC1)c1ccc(Cl)nc1 | > 56.7
56 | Cc1ccc(C(=O)C2=C(O)C(=O)N(Cc3ccco3)C2c2cccc(Cl)c2)o1 (stereo unspecified) | > 59.7
57 | O=C(/C=C/c1ccc(F)cc1)N1CC[C@@]2(O)CCCC[C@H]2C1 | > 45.5
58 | Cc1cccc(C(=O)OC(C)CN2C(C)CCCC2C)c1.Cl (stereo unspecified) | > 48.9
59 | CCOc1nc(Nc2ccc(Cl)cc2)nc(OCC)n1 | 3.5 (≈ 11.9 µM)
60 | Cc1ccc(CNC(=O)c2c(-c3ccccc3)noc2C)cc1 | 2.1 (≈ 6.85 µM)
61 | CCOC(=O)N1CCC(NC(=O)CCc2ccccc2)CC1 | > 45.7
62 | O=C(NCC1CCCO1)c1cc2c(s1)CCCC2 (stereo unspecified) | > 39.8
63 | Cc1cc(NC(=O)CSc2nc3c(cc2C#N)CCCCC3)no1 | < 0.2
64 | CC1(C)CC(=O)N(c2ccc(Cl)cc2Cl)C(=O)C1 | > 42.9
65 | c1ccc(CN2CCC3(CC2)Nc2ccccc2S3)cc1 | 27.9 (≈ 94.1 µM)
66 | O=C(Nc1ccc2c(c1)OCCO2)c1cccnc1Oc1ccc(Cl)cc1 | 5.5 (≈ 14.4 µM)

Row | SMILES | solubility kinetic [µg/mL]
67 | CC1(C)CC(=O)C=C(NCc2ccc(C(=O)O)cc2)C1 | 37.6 (≈ 138 µM)
68 | COc1ccc(NC(=S)NCCCN2CCCC2)cc1Cl | > 49.2
69 | Nc1ccc(S(=O)(=O)N2CCc3ccccc32)cc1 | > 41.2
70 | Cc1ccc(NC(=S)NC(=O)c2cncc(Br)c2)cc1Cl | 2.4 (≈ 6.24 µM)
71 | CC1Oc2ccccc2N(Cc2ccc(F)cc2)C1=O (stereo unspecified) | 23.4 (≈ 86.3 µM)
72 | CCCCN(C(=O)CSc1ncnc2sccc12)c1c(N)n(Cc2ccccc2)c(=O)[nH]c1=O | 3.9 (≈ 7.85 µM)
73 | O=C(CSc1ncnc2ccccc12)NCc1ccc2c(c1)OCO2 | 10.1 (≈ 28.6 µM)
74 | CN1C(=O)CSC1=Nc1ccc(Br)cc1 | 33.3 (≈ 117 µM)
75 | COc1ccc(S(=O)(=O)NCCc2ccccn2)cc1 | > 43.9
76 | Cc1cc2occ(CC(=O)NC3(C)CCS(=O)(=O)C3)c2cc1C (stereo unspecified) | > 50.3
77 | CCn1c(SCc2ccccc2)nc2cc(S(N)(=O)=O)ccc21 | 2.2 (≈ 6.33 µM)
78 | COc1ccc(/C(N)=N/OC(=O)C2CCCCC2)cc1 | 20.6 (≈ 74.5 µM)
79 | Cc1ccc(OCC(=O)NCCNC(=O)c2ccncc2)cc1 | 45.1 (≈ 144 µM)
80 | Cc1ccc(N2CC(C(=O)N3CCOCC3)CC2=O)cc1C (stereo unspecified) | 34.3 (≈ 113 µM)
81 | COc1ccccc1CCNC(=O)c1c(C)nn(CC(C)C)c1Cl | > 52.5
82 | Cc1ccc(C)c(C(=O)N2CCN(c3ncccn3)CC2)c1 | > 44.5
83 | O=C(Nc1cccc(Cl)c1N1CCCC1)c1ccco1 | 1.2 (≈ 4.13 µM)
84 | Cc1cccc(C(=O)NC2CC3CCC(C2)N3C)c1 (stereo unspecified) | > 38.8
85 | Cc1ccc(C)c(/C=C2\N=C(c3ccccc3F)OC2=O)c1 | 11.8 (≈ 40 µM)
86 | COc1ccc2[nH]c(C(=O)NCCCn3ccnc3)cc2c1 | > 44.8
